Measured values as given in patent publication US11225474B2, “Crystalline salt forms of 3-(1,2,4-triazolo[4,3-a]pyridine-3-ylethynyl)-4-methyl-N-(4-((4-methylpiperazin-1-yl)methyl)-3-trifluoromethylphenyl)benzamide for medical application” (priority 2016, dated 2022).
Read-outs that look alike come from different tables or passages of the source.

Columns and labels:
EPHB2 = EPHB2 (Homo sapiens, UniProt P29323); experiment: Human kinase panel at 100 nM; assay type: biochemical
FGR = FGR (Homo sapiens, UniProt P09769); experiment: Human kinase panel at 100 nM; assay type: biochemical
FGR, sequence (P09769 whole entry): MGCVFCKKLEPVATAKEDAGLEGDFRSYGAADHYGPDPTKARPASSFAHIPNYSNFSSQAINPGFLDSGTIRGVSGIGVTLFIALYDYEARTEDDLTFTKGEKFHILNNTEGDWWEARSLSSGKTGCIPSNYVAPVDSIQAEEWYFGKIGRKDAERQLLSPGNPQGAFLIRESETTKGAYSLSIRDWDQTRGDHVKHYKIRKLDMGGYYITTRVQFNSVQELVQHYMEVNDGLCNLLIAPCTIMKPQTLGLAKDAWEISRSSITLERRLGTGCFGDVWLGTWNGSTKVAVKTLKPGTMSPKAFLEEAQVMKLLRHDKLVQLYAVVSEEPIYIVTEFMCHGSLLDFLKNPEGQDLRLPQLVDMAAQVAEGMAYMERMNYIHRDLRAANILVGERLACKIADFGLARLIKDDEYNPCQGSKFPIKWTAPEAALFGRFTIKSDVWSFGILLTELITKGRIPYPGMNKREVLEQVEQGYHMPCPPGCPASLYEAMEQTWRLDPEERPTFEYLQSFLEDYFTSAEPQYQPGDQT

FLT4/VEGFR3 = FLT4/VEGFR3 (Homo sapiens, UniProt P35916); experiment: Human kinase panel at 100 nM; assay type: biochemical
FLT4/VEGFR3, sequence (P35916 25-1363): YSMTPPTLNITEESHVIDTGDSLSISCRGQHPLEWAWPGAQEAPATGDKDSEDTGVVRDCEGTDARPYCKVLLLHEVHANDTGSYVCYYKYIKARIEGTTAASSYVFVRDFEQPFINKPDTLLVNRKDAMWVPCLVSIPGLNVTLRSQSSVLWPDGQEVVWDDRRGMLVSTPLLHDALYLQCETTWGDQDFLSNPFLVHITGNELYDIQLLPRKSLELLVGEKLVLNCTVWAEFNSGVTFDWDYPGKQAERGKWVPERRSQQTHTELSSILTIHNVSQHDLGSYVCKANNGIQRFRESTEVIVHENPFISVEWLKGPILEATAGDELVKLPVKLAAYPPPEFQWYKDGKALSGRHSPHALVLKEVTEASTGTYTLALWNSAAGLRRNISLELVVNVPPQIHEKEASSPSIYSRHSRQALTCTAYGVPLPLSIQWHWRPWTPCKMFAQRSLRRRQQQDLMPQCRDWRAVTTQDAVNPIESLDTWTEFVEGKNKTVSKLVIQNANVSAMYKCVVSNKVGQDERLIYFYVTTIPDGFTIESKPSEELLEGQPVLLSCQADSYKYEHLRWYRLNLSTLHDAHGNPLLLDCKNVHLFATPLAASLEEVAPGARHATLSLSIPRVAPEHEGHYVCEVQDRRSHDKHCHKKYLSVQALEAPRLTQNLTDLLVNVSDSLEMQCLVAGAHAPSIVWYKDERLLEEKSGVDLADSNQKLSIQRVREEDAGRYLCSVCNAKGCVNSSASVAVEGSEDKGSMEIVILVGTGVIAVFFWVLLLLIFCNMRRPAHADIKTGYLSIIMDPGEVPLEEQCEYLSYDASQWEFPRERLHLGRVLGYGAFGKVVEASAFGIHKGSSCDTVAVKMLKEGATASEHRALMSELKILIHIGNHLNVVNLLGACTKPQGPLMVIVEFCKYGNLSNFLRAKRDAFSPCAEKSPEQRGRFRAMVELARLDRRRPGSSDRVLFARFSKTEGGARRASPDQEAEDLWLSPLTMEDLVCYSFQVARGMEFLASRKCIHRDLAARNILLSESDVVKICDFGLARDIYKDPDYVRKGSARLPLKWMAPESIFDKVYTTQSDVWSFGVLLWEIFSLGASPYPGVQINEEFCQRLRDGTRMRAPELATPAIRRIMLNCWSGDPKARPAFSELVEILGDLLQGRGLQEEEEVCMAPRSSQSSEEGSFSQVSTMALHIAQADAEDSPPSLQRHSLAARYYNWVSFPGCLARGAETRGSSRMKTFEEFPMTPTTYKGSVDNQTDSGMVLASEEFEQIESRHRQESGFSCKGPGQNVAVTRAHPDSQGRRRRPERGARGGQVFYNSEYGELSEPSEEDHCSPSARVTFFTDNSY

P38a/MAPK14 = P38a/MAPK14 (Homo sapiens, UniProt Q16539); experiment: Human kinase panel at 100 nM; assay type: biochemical
P38a/MAPK14, sequence (Q16539 whole entry): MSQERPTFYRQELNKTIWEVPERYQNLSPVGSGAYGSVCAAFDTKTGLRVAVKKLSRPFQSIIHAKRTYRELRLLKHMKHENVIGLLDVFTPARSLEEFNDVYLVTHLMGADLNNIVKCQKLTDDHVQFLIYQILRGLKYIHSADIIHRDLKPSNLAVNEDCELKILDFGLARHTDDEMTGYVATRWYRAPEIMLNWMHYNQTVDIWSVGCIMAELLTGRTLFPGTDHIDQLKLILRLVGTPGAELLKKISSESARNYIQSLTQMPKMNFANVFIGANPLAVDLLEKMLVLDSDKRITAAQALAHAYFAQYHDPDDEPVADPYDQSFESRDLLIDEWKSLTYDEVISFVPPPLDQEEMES

RAF1 = RAF1 (Homo sapiens, UniProt P04049); experiment: Human kinase panel at 100 nM; assay type: biochemical
RAF1, sequence (P04049 whole entry): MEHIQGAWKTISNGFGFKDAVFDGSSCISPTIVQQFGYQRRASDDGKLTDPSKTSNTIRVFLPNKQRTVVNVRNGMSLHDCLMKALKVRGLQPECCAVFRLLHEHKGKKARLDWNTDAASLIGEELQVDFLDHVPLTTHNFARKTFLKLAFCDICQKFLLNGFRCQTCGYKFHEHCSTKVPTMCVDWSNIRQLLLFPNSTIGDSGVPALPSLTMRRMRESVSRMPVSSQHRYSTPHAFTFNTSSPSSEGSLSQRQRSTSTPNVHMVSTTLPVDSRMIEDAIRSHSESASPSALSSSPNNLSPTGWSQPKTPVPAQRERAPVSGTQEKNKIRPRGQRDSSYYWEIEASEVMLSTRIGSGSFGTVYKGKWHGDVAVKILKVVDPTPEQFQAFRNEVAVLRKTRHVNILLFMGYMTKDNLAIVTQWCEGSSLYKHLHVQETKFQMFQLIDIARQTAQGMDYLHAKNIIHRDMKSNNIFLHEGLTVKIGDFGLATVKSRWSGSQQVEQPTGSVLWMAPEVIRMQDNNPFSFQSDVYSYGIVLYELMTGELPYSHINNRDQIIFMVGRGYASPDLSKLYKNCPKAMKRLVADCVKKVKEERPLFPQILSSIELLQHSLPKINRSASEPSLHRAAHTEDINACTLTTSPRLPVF

K562 = experiment: Cytotoxicity, Ph+ CML model cell line; assay type: cell-based; details: Homo sapiens, read-out: IC50 (toxicity)
Tom-1 = experiment: Cytotoxicity, Ph+ ALL model cell line; assay type: cell-based; details: Homo sapiens, read-out: IC50 (toxicity)
BaF3/BCR-ABL T315I = experiment: Toxicity to transduced BaF3 model tumor cell line; assay type: cell-based, murine; details: Mus musculus
MDA-MB-468 = experiment: Cytotoxicity, breast cancer line; assay type: cell-based, human
K562 line cells = experiment: Xenograft chronic leukemia model; assay type: in vivo, thymus-deprived mice; details: oral, 14 days, follow-up 240 days
Text: The therapy was started after the size of the tumor had reached 500 mm^3, therapy duration was 14 days, the follow-up period was 240 days.

in vivo [1] = details: for Vd / half-life / clearance / AUC / bioavailability: in vivo; for Vd: read-out: apparent volume of distribution Vd; for half-life: read-out: half-life period (converted); for clearance: intravenous administration; for bioavailability: read-out: bioavailability F
Text: Clearance following intravenous administration is quite high: 2.12 L/h/kg for dogs, 1.61 L/h/kg for rats. A large apparent volume of distribution (Vd=14.1 L/kg for dogs, 6.16 L/kg for rats) indicates extensive drug distribution in tissues.

in vivo [2] = assay type: in vivo; details: mice
CYP3A4 = CYP3A4 (Homo sapiens, UniProt P08684); experiment: Metabolism study using cytochrome enzyme drugs; assay type: in vitro ADME
CYP3A4, sequence (P08684 whole entry): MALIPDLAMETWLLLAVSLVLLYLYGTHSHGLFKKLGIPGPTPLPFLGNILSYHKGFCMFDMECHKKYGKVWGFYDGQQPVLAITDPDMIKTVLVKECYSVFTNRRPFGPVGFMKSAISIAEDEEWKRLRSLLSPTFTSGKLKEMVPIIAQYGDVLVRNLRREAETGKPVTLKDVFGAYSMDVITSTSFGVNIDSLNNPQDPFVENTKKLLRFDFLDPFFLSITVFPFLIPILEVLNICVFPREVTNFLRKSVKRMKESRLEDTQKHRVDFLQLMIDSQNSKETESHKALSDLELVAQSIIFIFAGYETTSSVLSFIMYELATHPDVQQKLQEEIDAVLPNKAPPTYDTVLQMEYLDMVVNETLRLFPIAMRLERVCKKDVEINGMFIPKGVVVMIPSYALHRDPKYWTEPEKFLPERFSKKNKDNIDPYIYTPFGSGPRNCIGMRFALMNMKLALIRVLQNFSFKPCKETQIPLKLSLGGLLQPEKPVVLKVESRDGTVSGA

CYP2B6 = CYP2B6 (Homo sapiens, UniProt P20813); experiment: Metabolism study using cytochrome enzyme drugs; assay type: in vitro ADME; details: 2B6
CYP2B6, sequence (P20813 whole entry): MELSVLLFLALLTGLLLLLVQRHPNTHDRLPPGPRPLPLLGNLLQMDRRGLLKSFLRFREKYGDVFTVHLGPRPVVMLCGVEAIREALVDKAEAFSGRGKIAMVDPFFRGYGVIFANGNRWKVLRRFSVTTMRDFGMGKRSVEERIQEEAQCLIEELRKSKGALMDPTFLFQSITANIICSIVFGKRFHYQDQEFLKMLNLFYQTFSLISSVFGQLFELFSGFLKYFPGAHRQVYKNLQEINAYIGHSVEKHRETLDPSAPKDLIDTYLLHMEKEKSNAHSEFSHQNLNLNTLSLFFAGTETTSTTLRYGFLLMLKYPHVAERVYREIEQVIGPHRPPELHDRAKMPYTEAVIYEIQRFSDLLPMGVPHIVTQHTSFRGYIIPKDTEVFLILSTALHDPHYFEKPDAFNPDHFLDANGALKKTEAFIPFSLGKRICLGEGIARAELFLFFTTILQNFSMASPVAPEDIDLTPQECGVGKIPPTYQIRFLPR

Guinea pigs and mice = experiment: Allergenic properties (anaphylaxis, ITH, DTH and related models); assay type: in vivo, Guinea pig; mice; details: all models studied
Text: To identify allergenic properties, the following methods were used: evaluation of anaphylactogenic activity using Guinea pig general systemic anaphylaxis and active cutaneous anaphylaxis models; evaluation of immediate-type hypersensitivity (ITH) reaction and delayed-type hypersensitivity (DTH) reaction in Guinea pigs following epicutaneous and conjunctival drug application; evaluation of DTH reaction in mice; study of the inflammation reaction to A concanavalin in mice; measuring of eosinophil blood count, evaluation of the effect on phagocyte neutrophil activity (Nitro Blue-Tetrazolium Test (NBT)), and leukocyte specific lysis reaction scenario using a Guinea pig model with subcutaneous administration of the drug.

Drosophila melanogaster = experiment: Gene toxicity: induced somatic mosaicism; assay type: in vivo; details: all doses tested
physchem = details: deionized water, thermodynamic from solid, Equilibrium solubility, HPLC analysis
Bcr-Abl = Bcr-Abl (Homo sapiens, UniProt P00519); experiment: Bcr-Abl tyrosine kinase enzyme activity
Bcr-Abl (G250E) = Bcr-Abl (G250E) (Homo sapiens, UniProt P00519, G250E, form not given); experiment: Bcr-Abl tyrosine kinase enzyme activity

EPHB2, sequence (P29323 19-1055): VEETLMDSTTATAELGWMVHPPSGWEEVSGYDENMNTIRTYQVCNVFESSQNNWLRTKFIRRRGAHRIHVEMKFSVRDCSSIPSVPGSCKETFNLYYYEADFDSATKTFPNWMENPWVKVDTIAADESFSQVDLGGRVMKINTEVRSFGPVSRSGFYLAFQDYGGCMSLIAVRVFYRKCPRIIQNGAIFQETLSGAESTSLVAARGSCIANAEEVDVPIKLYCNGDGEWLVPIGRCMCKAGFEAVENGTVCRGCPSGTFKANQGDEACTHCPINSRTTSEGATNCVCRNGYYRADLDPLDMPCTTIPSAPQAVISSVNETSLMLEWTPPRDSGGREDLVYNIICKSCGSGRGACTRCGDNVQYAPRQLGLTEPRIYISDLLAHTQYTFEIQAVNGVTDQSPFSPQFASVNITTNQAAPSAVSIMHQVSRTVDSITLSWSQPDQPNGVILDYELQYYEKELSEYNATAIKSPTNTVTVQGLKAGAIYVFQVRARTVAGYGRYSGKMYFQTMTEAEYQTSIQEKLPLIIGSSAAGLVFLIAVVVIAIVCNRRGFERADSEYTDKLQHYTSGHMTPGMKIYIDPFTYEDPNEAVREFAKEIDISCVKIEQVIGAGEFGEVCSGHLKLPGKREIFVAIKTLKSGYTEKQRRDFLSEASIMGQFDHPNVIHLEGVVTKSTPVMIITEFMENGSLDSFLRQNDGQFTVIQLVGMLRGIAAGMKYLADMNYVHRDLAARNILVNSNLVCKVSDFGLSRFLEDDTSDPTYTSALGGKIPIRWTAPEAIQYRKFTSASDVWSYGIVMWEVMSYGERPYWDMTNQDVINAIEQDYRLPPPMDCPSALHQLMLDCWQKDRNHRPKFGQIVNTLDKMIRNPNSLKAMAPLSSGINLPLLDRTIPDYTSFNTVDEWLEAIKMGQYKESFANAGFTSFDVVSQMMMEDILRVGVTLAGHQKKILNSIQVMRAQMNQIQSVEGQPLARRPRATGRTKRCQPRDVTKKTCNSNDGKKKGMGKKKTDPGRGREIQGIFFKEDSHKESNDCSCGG

CS(=O)(=O)O.Cc1ccc(C(=O)Nc2ccc(CN3CCN(C)CC3)c(C(F)(F)F)c2)cc1C#Cc1nnc2ccccn12 [methanesulfonic acid salt, 3-(1,2,4-triazolo[4,3-a]pyridine-3-ylethynyl)-4-methyl-N-(4-((4-methylpiperazin-1-yl)methyl)-3-trifluoromethylphenyl)benzamide mono methanesulfonic acid salt]
inhibition at 0.1 µM (EPHB2): > 50%
inhibition at 0.1 µM (FGR): > 50%
inhibition at 0.1 µM (FLT4/VEGFR3): > 50%
inhibition at 0.1 µM (P38a/MAPK14): > 50%
inhibition at 0.1 µM (RAF1): > 50%
IC50 (K562): 8 nM
IC50 (Tom-1): 5 nM
IC50 (BaF3/BCR-ABL T315I): 75 nM
cytotoxicity (MDA-MB-468): showed cytotoxicity
effect on the tumor size (K562 line cells; 25 mg/kg (21 as free base) per day): decrease of the tumor size to an immeasurable size with subsequent proliferation after the 35th day of follow-up
effect on the tumor size (K562 line cells; 40 mg/kg (34 as free base) per day): elimination of the tumor without relapse during all 240 days of follow-up in all mice
Vd (in vivo [1]; dog, dogs): 14.1 L/kg
half-life (in vivo [1]; dog, dogs): ~7 h
clearance (in vivo [1]; dog, dogs): 35.3 mL/min/kg
AUC (in vivo [1]; dog, oral, dogs, 2 mg/kg): 420 ng·h/mL
AUC (in vivo [1]; dog, oral, dogs, 22 mg/kg): 5480 ng·h/mL
AUC (in vivo [1]; dog, oral, dogs, 45 mg/kg): 5170 ng·h/mL
bioavailability (in vivo [1]; dog, oral, dogs, 2 to 22 mg/kg (2 to 19 mg/kg as free base)): 45.9 to 66.1%
maximum plasma concentration (in vivo [1]; oral, dogs, 2 to 45 mg/kg): 31.8 to 224 ng/mL
time to maximum plasma concentration (in vivo [1]; oral, dogs, 2 to 45 mg/kg): 3 to 8.5 h
maximum concentration (in vivo [1]; oral, rats, 5 mg/kg): 72 ng/mL
maximum concentration (in vivo [1]; oral, rats, 80 mg/kg): 1250 ng/mL
time to maximum concentration (in vivo [1]; oral, rats, 5 to 80 mg/kg): 2.3 to 5.3 h
clearance (in vivo [1]; rat, rats): 26.8 mL/min/kg
AUC (in vivo [1]; rat, oral, rats, 5 mg/kg): 430 ng·h/mL
AUC (in vivo [1]; rat, oral, rats, 80 mg/kg): 21100 ng·h/mL
bioavailability (in vivo [1]; rat, oral, rats, 5 to 80 mg/kg (4.2 to 68 mg/kg as free base)): 13.8 to 59.5%
Vd (in vivo [1]; rat, rats): 6.16 L/kg
half-life (in vivo [1]; rat, rats): ~3 h
half-life (in vivo [2]; mouse, in vivo, read-out: half-life period (converted)): ~3 h
AUC (in vivo [2]; mouse, in vivo, oral, 5 mg/kg): 372 ng·h/mL
AUC (in vivo [2]; mouse, in vivo, oral, 50 mg/kg): 12100 ng·h/mL
maximum concentration (in vivo [2]; oral, 5 mg/kg): 82 ng/mL
maximum concentration (in vivo [2]; oral, 50 mg/kg): 1,099 ng/mL
period of absorption to maximum concentration (in vivo [2]; oral, 5 to 50 mg/kg): 2 to 4 h
participation of the isoform in metabolism (CYP3A4): involves participation
participation of the isoform in metabolism (CYP2B6): does not involve
allergenic activity (Guinea pigs and mice): did not display any detectable allergenic activity
genotoxic effects (Drosophila melanogaster): had no genotoxic effects
solubility thermodynamic (physchem): > 100 mg/mL
IC50 (Bcr-Abl): 0.49 to 3.1 nM
IC50 (Bcr-Abl (G250E)): 7.4 nM
